Assay results: PMC6928688, “Identification of Novel PI3Kδ Selective Inhibitors by SVM-Based Multistage Virtual Screening and Molecular Dynamics Simulations” (International Journal of Molecular Sciences, 2019)
“Also recorded” adds a separate entry of the source. Like-named read-outs stand apart in the source and are kept apart here.

How the values were obtained:
Assay type in all cases: biochemical
recombinant PI3Kδ kinase [1] = biological target: T1, recombinant PI3Kδ kinase (Homo sapiens, UniProt O00329); assay: Cell free PI3Kδ kinase activity, ADP-Glo chemiluminescence assay
Source text: The chemiluminescence method was used to determine the inhibitory effect of the 15 hit compounds on PI3Kδ (Table 5). […] For 14317, the reason for its high activity was probably the long side chain on its guanine, which was the same as the reported PI3Kδ selective inhibitor Compound 1 (idelalisib) and Compound 7 (GNE-293). For Compounds 9 and 10, the reason the pyridazinone skeleton made them so active requires further study. Finally, the two compounds with the novel skeleton were selected for the subsequent molecular dynamics (MD) simulations. […]
The inhibitory activities of inhibitors against PI3Kδ were determined by the ADP-Glo assay. The recombinant PI3Kδ kinase was diluted to 2.2 μg/mL using reaction buffer (50 mM HEPES, pH 7.5, 10 mM MgCl2, 0.1 mg/mL BSA, 2 mM DTT, 1% DMSO), and ATP was diluted with reaction buffer (10 mM) to 250 μM, and the test compound and positive drug (idelalisib) were formulated into four concentration-gradient solutions (6 × 10^−2 M, 6 × 10^−4 M, 6 × 10^−6 M, 6 × 10^−8 M). The reaction was started by sequentially adding 2 μL of an ATP solution, 1 μL of a drug solution, and 2 μL of an enzyme solution in 96 wells. The assay was conducted for 1 h at 37 °C before the addition of 5 μL ADP-Glo reagent and incubation for 40 min at room temperature. A 10 μL amount of kinase detection reagent (Promega, Beijing, China) was added and incubated for 30 min at room temperature before the luminescence value was measured using a chemiluminescence module of a full-wavelength multi-function microplate reader (PerkinElmer, Singapore).

PI3Kβ = PI3Kβ (Homo sapiens, UniProt P42338); assay: PI3K isoform selectivity, chemiluminescence kinase assay (β); settings: isoform selectivity experiment
recombinant PI3Kδ kinase [2] = biological target: T1, recombinant PI3Kδ kinase; assay: Cell free PI3Kδ kinase activity, ADP-Glo chemiluminescence assay; settings: PI3Kδ versus α, β, γ
PI3Kα = PI3Kα (Homo sapiens, UniProt P42336); assay: PI3K isoform selectivity, chemiluminescence kinase assay (α); settings: isoform selectivity experiment
PI3Kγ = PI3Kγ (Homo sapiens, UniProt P48736); assay: PI3K isoform selectivity, chemiluminescence kinase assay (γ); settings: isoform selectivity experiment
[3] = 15 hit compounds from NCI database, chemiluminescence method, read-out: PI3Kδ IC50

T1 sequence (O00329 whole entry): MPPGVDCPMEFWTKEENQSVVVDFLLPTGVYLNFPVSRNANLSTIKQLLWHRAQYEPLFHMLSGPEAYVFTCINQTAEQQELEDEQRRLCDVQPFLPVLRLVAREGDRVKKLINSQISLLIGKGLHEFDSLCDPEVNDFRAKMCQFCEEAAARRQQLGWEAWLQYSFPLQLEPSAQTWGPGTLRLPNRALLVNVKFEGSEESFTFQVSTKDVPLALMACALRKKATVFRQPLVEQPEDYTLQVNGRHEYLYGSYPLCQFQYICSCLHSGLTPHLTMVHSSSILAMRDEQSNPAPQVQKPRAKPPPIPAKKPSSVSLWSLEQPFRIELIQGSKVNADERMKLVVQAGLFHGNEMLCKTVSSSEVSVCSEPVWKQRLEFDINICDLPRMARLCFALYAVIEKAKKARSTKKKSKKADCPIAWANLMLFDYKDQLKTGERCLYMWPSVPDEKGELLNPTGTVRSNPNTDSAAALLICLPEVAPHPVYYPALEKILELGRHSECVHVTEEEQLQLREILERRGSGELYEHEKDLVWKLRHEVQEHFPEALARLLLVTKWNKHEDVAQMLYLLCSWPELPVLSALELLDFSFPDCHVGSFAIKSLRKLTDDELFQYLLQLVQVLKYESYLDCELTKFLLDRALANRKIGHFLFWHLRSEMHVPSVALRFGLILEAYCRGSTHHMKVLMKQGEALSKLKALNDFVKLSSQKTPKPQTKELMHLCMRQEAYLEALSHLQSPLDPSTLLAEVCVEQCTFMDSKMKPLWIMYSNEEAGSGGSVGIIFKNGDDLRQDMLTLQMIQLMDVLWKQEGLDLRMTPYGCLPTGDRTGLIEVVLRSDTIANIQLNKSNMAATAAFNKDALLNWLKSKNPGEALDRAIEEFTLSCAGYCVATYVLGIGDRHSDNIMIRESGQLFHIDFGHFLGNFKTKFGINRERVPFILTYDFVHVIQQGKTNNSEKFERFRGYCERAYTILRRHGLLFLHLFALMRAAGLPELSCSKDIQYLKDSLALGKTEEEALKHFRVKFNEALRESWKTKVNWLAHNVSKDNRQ
T1 sequence (P27986 whole entry partner): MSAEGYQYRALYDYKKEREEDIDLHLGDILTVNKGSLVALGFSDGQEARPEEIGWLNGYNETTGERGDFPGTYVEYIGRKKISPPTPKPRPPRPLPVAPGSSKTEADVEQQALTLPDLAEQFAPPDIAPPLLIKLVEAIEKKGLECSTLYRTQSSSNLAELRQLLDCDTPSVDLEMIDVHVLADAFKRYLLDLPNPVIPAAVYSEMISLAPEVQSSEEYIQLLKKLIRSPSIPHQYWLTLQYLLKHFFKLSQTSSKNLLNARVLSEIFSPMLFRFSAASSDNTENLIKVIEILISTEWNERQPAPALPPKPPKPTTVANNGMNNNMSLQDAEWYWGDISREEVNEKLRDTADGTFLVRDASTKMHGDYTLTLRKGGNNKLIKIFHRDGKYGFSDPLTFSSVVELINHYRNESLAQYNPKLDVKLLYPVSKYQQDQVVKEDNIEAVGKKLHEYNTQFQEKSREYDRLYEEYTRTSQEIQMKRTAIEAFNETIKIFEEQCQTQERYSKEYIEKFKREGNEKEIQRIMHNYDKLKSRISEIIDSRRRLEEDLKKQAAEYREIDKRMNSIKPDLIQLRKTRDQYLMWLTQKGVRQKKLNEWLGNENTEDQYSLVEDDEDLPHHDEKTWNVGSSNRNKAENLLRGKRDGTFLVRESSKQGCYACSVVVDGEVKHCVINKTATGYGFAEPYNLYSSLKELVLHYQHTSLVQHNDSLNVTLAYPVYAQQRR
PI3Kα, sequence (P42336 whole entry, species assumed, canonical isoform): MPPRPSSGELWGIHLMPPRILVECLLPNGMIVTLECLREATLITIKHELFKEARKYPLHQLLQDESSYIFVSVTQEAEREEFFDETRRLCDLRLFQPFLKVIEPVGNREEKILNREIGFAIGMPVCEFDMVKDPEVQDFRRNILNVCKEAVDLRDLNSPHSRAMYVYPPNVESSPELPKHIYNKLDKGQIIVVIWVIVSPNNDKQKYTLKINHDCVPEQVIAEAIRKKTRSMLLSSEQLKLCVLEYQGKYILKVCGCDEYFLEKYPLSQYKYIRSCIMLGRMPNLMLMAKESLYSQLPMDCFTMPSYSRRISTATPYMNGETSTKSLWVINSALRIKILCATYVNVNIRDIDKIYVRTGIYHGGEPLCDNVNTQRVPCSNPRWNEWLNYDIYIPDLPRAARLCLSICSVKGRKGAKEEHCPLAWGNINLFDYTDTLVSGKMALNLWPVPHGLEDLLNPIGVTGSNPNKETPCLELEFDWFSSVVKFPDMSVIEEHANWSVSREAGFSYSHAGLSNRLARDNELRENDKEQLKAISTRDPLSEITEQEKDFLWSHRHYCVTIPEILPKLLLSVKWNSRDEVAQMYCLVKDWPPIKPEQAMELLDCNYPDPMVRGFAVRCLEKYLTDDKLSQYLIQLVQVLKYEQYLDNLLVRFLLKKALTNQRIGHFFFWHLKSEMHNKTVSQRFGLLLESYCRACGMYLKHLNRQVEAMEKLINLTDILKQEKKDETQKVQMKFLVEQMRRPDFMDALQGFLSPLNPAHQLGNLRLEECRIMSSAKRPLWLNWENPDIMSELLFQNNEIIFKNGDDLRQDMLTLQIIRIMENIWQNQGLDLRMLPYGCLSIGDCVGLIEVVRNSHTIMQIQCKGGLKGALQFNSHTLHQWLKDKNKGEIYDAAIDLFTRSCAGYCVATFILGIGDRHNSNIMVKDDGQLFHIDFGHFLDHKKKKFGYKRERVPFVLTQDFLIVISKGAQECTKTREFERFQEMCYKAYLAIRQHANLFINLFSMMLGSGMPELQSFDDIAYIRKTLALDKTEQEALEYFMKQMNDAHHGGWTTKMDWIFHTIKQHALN
PI3Kα, sequence (P27986 whole entry partner, species assumed, canonical isoform): as the sequence (P27986 whole entry partner) above
PI3Kβ, sequence (P42338 whole entry, canonical isoform): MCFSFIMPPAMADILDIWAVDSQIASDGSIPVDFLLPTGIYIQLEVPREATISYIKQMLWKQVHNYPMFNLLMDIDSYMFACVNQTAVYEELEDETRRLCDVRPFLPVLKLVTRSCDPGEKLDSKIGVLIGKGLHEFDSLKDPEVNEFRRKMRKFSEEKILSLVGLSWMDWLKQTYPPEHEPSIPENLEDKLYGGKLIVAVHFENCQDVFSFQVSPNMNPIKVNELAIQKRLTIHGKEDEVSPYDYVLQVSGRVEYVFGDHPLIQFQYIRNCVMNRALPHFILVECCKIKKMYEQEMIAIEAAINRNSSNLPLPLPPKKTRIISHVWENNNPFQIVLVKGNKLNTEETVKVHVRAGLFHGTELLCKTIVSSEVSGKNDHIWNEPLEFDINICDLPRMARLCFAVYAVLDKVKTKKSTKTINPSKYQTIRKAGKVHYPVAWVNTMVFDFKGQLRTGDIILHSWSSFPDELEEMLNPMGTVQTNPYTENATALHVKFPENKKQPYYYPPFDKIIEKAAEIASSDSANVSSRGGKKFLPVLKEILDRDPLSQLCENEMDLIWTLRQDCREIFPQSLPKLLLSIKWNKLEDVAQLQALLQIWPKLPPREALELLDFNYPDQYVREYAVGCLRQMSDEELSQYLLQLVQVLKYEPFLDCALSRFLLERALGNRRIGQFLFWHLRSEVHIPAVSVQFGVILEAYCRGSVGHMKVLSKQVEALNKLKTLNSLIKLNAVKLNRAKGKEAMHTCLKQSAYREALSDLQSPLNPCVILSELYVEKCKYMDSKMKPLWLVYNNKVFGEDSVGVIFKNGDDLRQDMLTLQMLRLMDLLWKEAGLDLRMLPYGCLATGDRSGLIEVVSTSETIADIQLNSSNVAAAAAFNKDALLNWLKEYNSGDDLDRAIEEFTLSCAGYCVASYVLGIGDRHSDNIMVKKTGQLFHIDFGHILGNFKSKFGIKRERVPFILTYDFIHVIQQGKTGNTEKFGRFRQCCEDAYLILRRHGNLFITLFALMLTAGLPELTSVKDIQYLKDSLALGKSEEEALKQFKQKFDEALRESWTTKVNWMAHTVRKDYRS
PI3Kβ, sequence (P27986 whole entry partner, canonical isoform): as the sequence (P27986 whole entry partner) above
PI3Kγ, sequence (P48736 whole entry, canonical isoform): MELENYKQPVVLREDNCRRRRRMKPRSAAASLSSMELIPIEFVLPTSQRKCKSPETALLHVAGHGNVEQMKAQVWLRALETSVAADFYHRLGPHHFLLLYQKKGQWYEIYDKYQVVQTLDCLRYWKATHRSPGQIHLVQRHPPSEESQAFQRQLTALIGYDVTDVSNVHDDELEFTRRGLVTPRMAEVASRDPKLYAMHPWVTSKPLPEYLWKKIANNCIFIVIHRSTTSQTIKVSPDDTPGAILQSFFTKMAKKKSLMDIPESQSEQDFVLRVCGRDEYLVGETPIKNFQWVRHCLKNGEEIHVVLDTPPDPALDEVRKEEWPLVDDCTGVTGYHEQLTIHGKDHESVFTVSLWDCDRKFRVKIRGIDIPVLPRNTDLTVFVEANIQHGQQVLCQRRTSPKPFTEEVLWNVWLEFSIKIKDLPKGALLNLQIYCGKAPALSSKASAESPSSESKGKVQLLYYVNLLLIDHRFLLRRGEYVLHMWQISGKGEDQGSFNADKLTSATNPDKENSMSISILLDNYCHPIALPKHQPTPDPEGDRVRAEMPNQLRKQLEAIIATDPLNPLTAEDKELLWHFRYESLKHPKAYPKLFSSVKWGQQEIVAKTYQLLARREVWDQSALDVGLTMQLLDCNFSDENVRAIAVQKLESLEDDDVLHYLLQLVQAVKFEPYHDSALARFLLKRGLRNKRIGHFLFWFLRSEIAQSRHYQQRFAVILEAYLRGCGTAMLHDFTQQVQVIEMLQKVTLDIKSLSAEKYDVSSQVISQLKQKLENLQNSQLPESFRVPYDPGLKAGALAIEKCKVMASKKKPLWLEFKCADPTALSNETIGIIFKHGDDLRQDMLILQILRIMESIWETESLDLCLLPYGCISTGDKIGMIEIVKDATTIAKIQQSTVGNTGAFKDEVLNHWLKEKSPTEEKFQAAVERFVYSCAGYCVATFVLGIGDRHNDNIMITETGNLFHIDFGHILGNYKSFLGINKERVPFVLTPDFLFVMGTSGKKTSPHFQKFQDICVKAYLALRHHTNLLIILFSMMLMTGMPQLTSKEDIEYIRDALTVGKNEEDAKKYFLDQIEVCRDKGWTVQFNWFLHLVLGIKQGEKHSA

Compound	IC50 (recombinant PI3Kδ kinase [1]; [3])	other results
O=c1cc(N2CCOCC2)oc2c(-c3ccccc3)cccc12 [LY294002, reference compound]	–	IC50 (recombinant PI3Kδ kinase [1]; read-out: PI3K IC50 δ): 3.49 µM
COc1cc(OC)c(OC)cc1/C=C/c1ccnc2ccccc12 [Compound 80756]	192 µM	–
CCN(CC)CCOc1nc2c(c(=O)n(C)c(=O)n2C)n1C [Compound 14317]	28.1 µM	–
CC/C(=N\Nc1cn[nH]c(=O)c1Br)c1ccccc1 [Compound 9]	72.2 µM	–
COc1c2c(c3c(c1OC)c(=O)c1ccccc1n3C)OCO2 [Compound 34758]	481 µM	–
C/C(=N\Nc1cn[nH]c(=O)c1Br)c1ccccc1 [Compound 10]	18.9 µM	IC50 (PI3Kβ): 188 µM; PI3K isoform selectivity (recombinant PI3Kδ kinase [2]): significant selectivity; also recorded: high isoform selectivity; IC50 (PI3Kα): 75 µM; IC50 (PI3Kγ): 226 µM
CCOC(=O)c1cc(Sc2ccccc2)nc2ccccc12 [Compound 25679]	289 µM	–

The next lines start with results.

IC50 (recombinant PI3Kδ kinase [1]; [3])	Compound	other results
500 µM	CC(=O)Nc1cc2c(cc1Cl)-c1ccc(Cl)cc1C2=O [Compound 57442]	–
809 µM	O=C1c2ccccc2-c2cc(Br)c(NC(=O)C(F)(F)F)cc21 [Compound 80144]	–
169 µM	CSc1cc2c(cc1NC(C)=O)C(=O)c1cc(F)ccc1-2 [Compound 109638]	–
522 µM	CCOC(=O)Nc1ccc2c(c1Cl)C(=O)c1ccccc1C2=O [Compound 39951]	–
248 µM	CC(=O)Nc1cc2c(cc1Br)-c1ccc(F)cc1C2=O [Compound 73075]	–
